According to US20240254108A1, “COMPOUND COMPRISING PYRROLIDINE AS LINKER, AND PHARMACEUTICAL COMPOSITION COMPRISING SAME” (BEAD TECH INC., priority 2021, published 2024):

Tested on: factors (genes) causing atopic dermatitis
Test: Expression of atopic dermatitis factors (genes) in skin of DNFB-treated mice, real time PCR (Experimental Example 4)
Format: in vivo
Conditions: RNA from skin of DNFB-treated female BALB/C mice, compound 100 μM on skin once a day to day 16; FIGS. 9 to 12
Procedure: For real time PCR, RNA was extracted using RNAiso Plus (TAKARA, Japan) and cDNA was synthesized using a cDNA synthesis kit (TAKARA, JAPAN). The polymerization reaction was carried out using the synthesized cDNA and a Sybr green kit (Enzynomics, Korea). […]

SMILES: NC(=O)[C@H](Cc1c[nH]cn1)NC(=O)[C@H]1CCCN1C(=O)c1cccc(O)c1O [Example 18]
- expression of the factors (genes) causing atopic dermatitis: reduce the expression of the factors (genes)
